What was measured:
[1] = system: cultured DFTD cells; details: cited from earlier work
Text: In this pioneer study, we examined for the first time, in our knowledge, the therapeutic potential of spider-venom peptides against DFTD. Our study provides a molecular and mechanistic characterisation of the mode of action of gomesin peptides to prevent the proliferation of DFTD cells. This is especially relevant since the Tasmanian devil population has declined by at least 80%[1] and currently the therapeutic strategies to slow down the progression of DFTD in infective-devils have been ineffective. That was the case of vincristine, a chemotherapeutic agent used in human and veterinary medici ...

[2] = system: DFTD4 cells; assay: MTT cell viability, DFTD4 cells; assay type: cell-based, Tasmanian devil (Sarcophilus harrisii)
Text: (§1) All DFTD (DFTD1, DFTD2, and DFTD4) and fibroblast (FIBS) cell lines were obtained from the Department of Primary Industries, Parks, Water, and Environment, State Government of Tasmania (DPIPWE) and were established as part of management plan and adhere to a standard operating practice. The DFTD1 cell line with catalogue number 3287 is derived from the tumour from a female devil (tag number: 06/2887) collected at St Marys, Eastern Tasmania in 2006. DFTD2 cell line with catalogue number 8961 was developed from a tumour from a male devil (tag number: 12/0625) collected at Kempton, Northern Tasmania in 2012. The DFTD4 cell line with catalogue number 4099 was developed from the tumour of a male devil (tag number: 07/0192) that was collected at Freycinet, east coast of Tasmania in 2007 and Fibroblasts cells (FIBS) with catalogue number 497 were obtained from a healthy devil male pup (tag number: 05/0962) held at Mount Pleasant, Southeastern of Tasmania in 2005.
(§2) Devil Facial Tumor cancer cell lines, and the control Tasmanian Devil fibroblast (FIBS) healthy cell line were maintained in a humidified incubator at 35 °C and 5% CO2. The DFTD cell lines were cultured in RPMI-1640 medium supplemented with 10% FCS, and 2 mM Glutamax. The FIBS was grown in GIBCO AmnioMAX-C100 Basal Medium liquid, containing AmnioMAX-C100 supplement. Penicillin/streptomycin (PS) (100 U/ml each) was added to both media. The cells were passaged at ~90% confluency. Functional studies were performed with passages up to 20. All cell lines were mycoplasma free.
(§3) Cell viability as an indicator of the number of viable and proliferative cells was measured by MTT according to the protocol of the manufacturer (Sigma-Aldrich, Australia). In brief, 8000 DFTD and 5000 FIBS cells/well were seeded in a 96-flat adherent microtiter well plate for 24 h to allow cell adhesion. Gomesin peptides and/or analogues were then added to the plates to measure MTT reduction. Plates were measured after 48 h at 540 nm absorbance in a microplate reader (BIOTEK PowerWave XS, USA). 0.1% SDS was used as a positive control (100% toxicity). A row of untreated cells was used to define 100% viability and blank wells containing only media were used to extract background. The concentration of gomesin peptides causing 50% inhibition (EC50) in DFTD and FIBS cells was determined using GraphPad Prism Software (Graphpad Inc, USA).

[3] = system: FIBS cells; assay: MTT cell viability, non-transformed fibroblasts (FIBS); assay type: cell-based, Tasmanian devil (Sarcophilus harrisii); details: 50 µg/mL, 48 h
Text: as §1, §2, §3

[4] = system: DFTD2 cells; assay: MTT cell viability, DFTD2 cells; assay type: cell-based, Tasmanian devil (Sarcophilus harrisii); details: Table 3, 48 h
Text: as §1, with “2005. […]” for “2005.”
(§4) Cell viability as an indicator of the number of viable and proliferative cells was measured by MTT according to the protocol of the manufacturer (Sigma-Aldrich, Australia). […] Plates were measured after 48 h at 540 nm absorbance in a microplate reader (BIOTEK PowerWave XS, USA). […]

[5] = system: DFTD1 cells; assay: MTT cell viability, DFTD1 cells; assay type: cell-based, Tasmanian devil (Sarcophilus harrisii); details: Table 3, 48 h
Text: as §1, with “2005. […]” for “2005.”
as §4

[6] = system: DFTD4 cells; assay: Mitochondrial membrane potential (Rhodamine 123); assay type: cell-based, Tasmanian devil (Sarcophilus harrisii); details: 50 µg/mL, 24 h, vs. vehicle
Protocol: We measured the mitochondrial membrane potential (MMP) using Rhodamine 123 (Rhod-123) (Sigma-Aldrich, Australia), a cationic dye that is localised in mitochondria. Loss-of-MMP results in loss-of-Rhod-123 fluorescence. Approximately 1 × 10^6 DFTD4 cells treated with AgGom or HiGom at 50 µg/mL for 24 h were collected and resuspended in 0.1 ml of culture medium, stained with 10 µg/mL Rhod-123 for 30 min, and then washed with PBS. The intracellular concentration of Rho123 was determined immediately after by flow cytometry (BD Biosciences, USA) using an excitation wavelength of 488 nm. The data were analysed using FlowJo v10.06 (FlowJo, USA).

[7] = system: DFTD4 cells; assay: Reactive oxygen species (Carboxy-H2DCFDA, flow cytometry); assay type: cell-based, Tasmanian devil (Sarcophilus harrisii); details: 50 μg/mL, 24 h, vs. untreated
Protocol: An Amplex Red Hydrogen Peroxidase assay kit (Invitrogen, Australia) was used to measure reactive oxygen species (ROS) generation in DFTD4 cells. A fluorescence probe that detects intracellular H2O2, Carboxy-H2DCFDA, was added 30 min prior to collecting cells to measure ROS production in DFTD4 cells that were previously treated with gomesin peptides at 50 µg/mL for 24 h. Fluorescent cells were washed twice with PBS prior to analysis on a FACSCalibur flow cytometer (BD Biosciences, USA) using excitation and emission wavelengths of 492 nm and 517 nm, respectively. Approximately 10,000 events were recorded per sample and the readout was analysed using FlowJo software v10.06 (FlowJo, USA).

[8] = system: DFTD4 cells; assay: Cell cycle analysis (PI, flow cytometry); assay type: cell-based, Tasmanian devil (Sarcophilus harrisii); details: 50 μg/mL, 24 h, mean ± SEM, three independent experiments
Protocol: DFTD4 cells were synchronised by removing serum from the medium for ~24 h. Cells were then transferred into medium containing serum and treated with AgGom or HiGom at 50 µg/mL for 24 h. Cells were detached mechanically, washed with PBS and fixed with 70% ethanol for ~1 h at 4 °C. Ethanol was removed by centrifugation (453 g for 5 min) and cells were washed with PBS. Cells were treated with 5 µL of 10 µg/mL ribonuclease A to remove RNA contamination and further incubated for 1 h at 37 °C to allow release of low-molecular weight DNA. Cell pellets were stained with 10 µL of propidium iodide (PI) (1 mg/ml) and analysed at a maximum emission of 605 nm using a LSR Fortessa 5 analyser (BD Biosciences, San Diego, CA, US). Approximately 10,000 events were recorded and data were analysed using FlowJo software v10.06 (FlowJo, US).

[9] = system: DFTD4 cells; assay: Annexin V-FITC/PI apoptosis and necrosis; assay type: cell-based, Tasmanian devil (Sarcophilus harrisii); details: 50 µg/mL, 24 h
Protocol: Apoptosis in DFTD4 cells treated with AgGom or HiGom was measured using an Annexin V-FITC Apoptosis detection kit in combination with a Canto II high-throughput fluorescence-activated cell sorter (BD Biosciences, USA). Briefly, cells were seeded at a density of 100,000 cells/well in a round-bottom 96-well plate and treated with 50 µg/mL AgGom or HiGom for 24 h. The cells were collected mechanically, washed twice with PBS and once with wash buffer provided by the manufacturer. Cells were stained simultaneously with FITC-labelled annexin V and PI for 30 min in the dark and at room temperature before being analysed.

[10] = system: DFTD4 cells; assay: qRT-PCR of cell cycle check-point, pro-survival and apoptosis genes; assay type: cell-based, Tasmanian devil (Sarcophilus harrisii); details: 50 μg/mL, vs. vehicle
Protocol: Total RNA was extracted from both untreated (control) and gomesin-treated DFTD4 cells using an RNeasy kit (Qiagen, Australia) and 1 µg was reverse-transcribed into cDNA using SensiFast (Bioline, UK). Quantitative real time-PCR (qRT-PCR) to quantitate mRNA expression was performed on a LightCycler Instrument (Roche Molecular Biochemicals, Australia) with Tasmanian devil 18S used as the reference (housekeeper) gene. All primers are listed in Supplementary.

Compound: CC(C)Cn1cnc2c(N)nc3ccccc3c21 [imiquimod]
- apoptotic activity against cultured DFTD cells [1]: displayed apoptotic activity

Compound: ZCRRLCYKQRCVTYCRGR-NH2 (bicyclic or more) [AgGom, 18-residue spider peptide gomesin first isolated from hemocytes of Acanthoscurria gomesiana]
- cell viability / anti-proliferative activity in DFTD4 cells ([2]; 50 µg/mL, 48 h): dramatically reduced the cell viability
- EC50 ([2]; DFTD4 cells, 48 h exposure, three independent experiments in triplicate): 25.25 µg/mL
- deleterious effects on FIBS viability [3]: not statistically significant
- EC50 (µg/mL) DFTD2 [4]: 12.29 µg/mL
- EC50 (µg/mL) DFTD1 [5]: 20.4 µg/mL
- MMP [6]: significant decrease in MMP
- ROS [7]: significant increase in ROS
- G0/G1 [8]: 39.9 ± 1.32
- G2/M [8]: 14.3 ± 0.9
- S-phase [8]: 11.47 ± 1.35
- early or late apoptotic cell ratio [9]: not altered
- necrosis of DFTD cells compared to untreated cells [9]: significantly increased necrosis
- expression of BCL2 [10]: enhanced
- expression of p21 [10]: induction
- expression of p53 [10]: enhanced
- expression of pro-survival gene MCL1 [10]: induction
- p27 expression [10]: statistically significant increase

Reference: PMC5841354, “Gomesin peptides prevent proliferation and lead to the cell death of devil facial tumour disease cells” (Cell Death Discovery, 2018)
